Measured values as given in ChEMBL document CHEMBL1201862, “PubChem BioAssay data set” (2004).
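Results reflect a 48-hour exposure of cells in 96-well plates to compound at five concentrations. At the GI50, growth is halved.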 The source made the active and inactive calls. Cut-off read from the data, not from the text of the source: active = GI50 up to about 1.1 µM and inactive = higher.

Tests used:
Test in all cases: inhibition of tumour cell growth, NCI panel, 48 h
[1] = test system: DMS-114
[2] = test system: DMS-273
[3] = test system: HOP-18
[4] = test system: KM-20L2
[5] = test system: LXFL 529
[6] = test system: M19-MEL
[7] = test system: RXF 631
[8] = test system: XF498
[9] = test system: SNB-78

SMILES	GI50 [1]	GI50 [2]	GI50 [3]	GI50 [4]	GI50 [5]	GI50 [6]	GI50 [7]	GI50 [8]	GI50 [9]
CCC1(CC)C(=O)NC(=S)N=C1N	> 100 µM (inactive)	> 100 µM (inactive)	> 100 µM (inactive)	> 100 µM (inactive)	> 100 µM (inactive)	> 100 µM (inactive)	> 100 µM (inactive)	> 100 µM (inactive)	
Cc1ccc(NC(=O)CC/C(CC(=O)C(C)(C)C)=N\Nc2ccc([N+](=O)[O-])cc2[N+](=O)[O-])cc1C	30 µM (inactive)		> 100 µM (inactive)	> 100 µM (inactive)	40.9 µM (inactive)	47.5 µM (inactive)	> 100 µM (inactive)		> 100 µM (inactive)
NC1=NN(c2ccccc2)C(=O)C1C(=O)CCC(=O)Nc1cccc(Cl)c1 (centres undefined)	> 100 µM (inactive)	> 100 µM (inactive)	> 100 µM (inactive)	> 100 µM (inactive)	> 100 µM (inactive)	> 100 µM (inactive)		> 100 µM (inactive)	> 100 µM (inactive)
CCOc1ccc(/C(Cl)=C(\C=O)c2ccc(OC)c(OC)c2)cc1OCC	11 µM (inactive)	45.8 µM (inactive)	> 100 µM (inactive)	> 100 µM (inactive)	30.5 µM (inactive)	33 µM (inactive)		53.2 µM (inactive)	36.8 µM (inactive)
COc1cc(C2C(Cl)C(=O)N2NC(=O)Cc2ccccc2)ccc1O (centres undefined)	50.2 µM (inactive)	> 100 µM (inactive)	40.3 µM (inactive)	> 100 µM (inactive)	70.6 µM (inactive)	> 100 µM (inactive)		> 100 µM (inactive)	> 100 µM (inactive)
N#CC(c1ccccn1)c1nc2ccccc2[nH]1 (centres undefined)	51.5 µM (inactive)				> 100 µM (inactive)	> 100 µM (inactive)		64.4 µM (inactive)	> 100 µM (inactive)
O=c1cc(-c2ccccc2)nc(/C=C(\O)c2ccncc2)n1-c1ccccc1	> 100 µM (inactive)	> 100 µM (inactive)	> 100 µM (inactive)	> 100 µM (inactive)	> 100 µM (inactive)	> 100 µM (inactive)			> 100 µM (inactive)
OCC(O)C(OC1OC(CO)C(O)C(O)C1O)c1nn(-c2ccc(F)cc2)c2nc3cc(Cl)c(Cl)cc3cc12 (centres undefined)	> 100 µM (inactive)			> 100 µM (inactive)	> 100 µM (inactive)	> 100 µM (inactive)		> 100 µM (inactive)	> 100 µM (inactive)
CC(C)[C@H](COC(C)(C)C)/N=C/N1CSc2ccccc21	21.8 µM (inactive)	16.8 µM (inactive)		27.8 µM (inactive)	34.7 µM (inactive)	36.6 µM (inactive)	27.4 µM (inactive)	16.9 µM (inactive)	30 µM (inactive)
O=C(/N=C(\Nc1ccccc1)SCCS/C(=N/C(=O)c1cccs1)Nc1ccccc1)c1cccs1	30.2 µM (inactive)	58.7 µM (inactive)		41.9 µM (inactive)	46.9 µM (inactive)	53.8 µM (inactive)		34.4 µM (inactive)	
CCCCCCCCCCCCC(Br)C(C)=O (centres undefined)	> 100 µM (inactive)	> 100 µM (inactive)	> 100 µM (inactive)	> 100 µM (inactive)	> 100 µM (inactive)	> 100 µM (inactive)	> 100 µM (inactive)	> 100 µM (inactive)	> 100 µM (inactive)
CN(C)CCCCCNc1c2ccccc2nc2cccc([N+](=O)[O-])c12	0.00242 µM (active)	0.00197 µM (active)	0.027 µM (active)	0.0036 µM (active)	0.0115 µM (active)	0.00512 µM (active)		0.00277 µM (active)	0.00565 µM (active)
ClCc1ccc(C2OCCO2)cc1	> 24 µM (inactive)	18.3 µM (inactive)	37.5 µM (inactive)	> 45.9 µM (inactive)	17.1 µM (inactive)	14 µM (inactive)	> 100 µM (inactive)	18.8 µM (inactive)	14.4 µM (inactive)
COc1ccc(/C=N/N=C(\N)NO)c(Cl)c1O	5.9 µM (inactive)		2.22 µM (inactive)		2.89 µM (inactive)	1.48 µM (inactive)			34.1 µM (inactive)
Cc1ccccc1NC(=O)/C=N/O	> 100 µM (inactive)	> 100 µM (inactive)	> 100 µM (inactive)	16.9 µM (inactive)	> 100 µM (inactive)	> 100 µM (inactive)			
COc1ccc(/C(Cl)=C(\C=O)c2ccc(OC)c(OC)c2)cc1OC	> 90.2 µM (inactive)	> 90.4 µM (inactive)	> 98.2 µM (inactive)	> 100 µM (inactive)		99.3 µM (inactive)		> 88.9 µM (inactive)	> 100 µM (inactive)
COC(c1ccccc1)C(c1ccccc1)N1CCOCC1 (centres undefined)	> 100 µM (inactive)	> 100 µM (inactive)	> 100 µM (inactive)	> 100 µM (inactive)	> 100 µM (inactive)	> 100 µM (inactive)		53 µM (inactive)	> 100 µM (inactive)
O=C1C(Cl)C(c2ccccc2O)N1n1cnc2ccccc2c1=O (centres undefined)	20 µM (inactive)	63.4 µM (inactive)	37 µM (inactive)	78.3 µM (inactive)	61.1 µM (inactive)	97.3 µM (inactive)		5.32 µM (inactive)	26.2 µM (inactive)
O=C1Nc2ccccc2N=CC1NC(=O)C(c1ccccc1)c1ccccc1 (centres undefined)	86.5 µM (inactive)	> 100 µM (inactive)	> 100 µM (inactive)	> 100 µM (inactive)	> 100 µM (inactive)	> 100 µM (inactive)	> 100 µM (inactive)		> 100 µM (inactive)
COC1CCC(OS(C)(=O)=O)C(CO)O1 (centres undefined)				> 100 µM (inactive)	> 100 µM (inactive)	> 100 µM (inactive)		> 100 µM (inactive)	
O=C(N/C(=C\c1ccc([N+](=O)[O-])cc1)c1nc2cc(Cl)ccc2[nH]1)c1ccccc1	16.3 µM (inactive)			16.3 µM (inactive)	17.1 µM (inactive)	31.6 µM (inactive)		15.3 µM (inactive)	23.8 µM (inactive)
CCNC(=O)COc1ccc(Cl)cc1Cl	> 100 µM (inactive)	> 100 µM (inactive)	> 100 µM (inactive)	> 100 µM (inactive)	> 100 µM (inactive)	> 100 µM (inactive)	> 100 µM (inactive)		> 100 µM (inactive)
Cc1ccc(NC(=O)NC23CC4CC(CC(F)(C4)C2)C3)cc1	46.6 µM (inactive)	86.3 µM (inactive)		45.9 µM (inactive)	88.7 µM (inactive)	> 100 µM (inactive)		> 100 µM (inactive)	> 100 µM (inactive)
CS/C(=N\c1ccccc1Cl)NC(=O)c1ccc(Br)cc1	> 100 µM (inactive)		25.5 µM (inactive)	> 100 µM (inactive)	79.4 µM (inactive)	> 100 µM (inactive)		46.2 µM (inactive)	19.1 µM (inactive)
Cc1ccccc1NC(=O)/C(=N\NC(N)=S)C(C#N)c1ccccc1 (centres undefined)	72.4 µM (inactive)	> 100 µM (inactive)	> 100 µM (inactive)	> 100 µM (inactive)	> 100 µM (inactive)	> 100 µM (inactive)	> 100 µM (inactive)		> 100 µM (inactive)
